Earlier results as cited in patent US4127527A, “Novel pentadecapeptides, intermediates therefor, and compositions and methods employing said pentadecapeptides” (priority 1977, dated 1978).

What was measured:
[1] = system: brain opiate receptor sites; settings: natural peptide; Bradbury et al., Nature 260, 793 (1976)
[2] = system: rat; settings: injected directly into the brain of the rat; Belluzzi et al., Nature 260, 625 (1976)

H-Tyr-Gly-Gly-Phe-Met-OH [methionine enkephalin]
binding to partially purified brain opiate receptor sites [1]: binds stereo-specifically | analgesic activity [2]: only weak analgesic agent of short duration
